pIC50: −log10 of the molar value. Read-outs that look alike come from different tables or passages of the source.
Key:
[1] = biological target: T1, GST-tagged human recombinant active B-Raf (Δ1-415) (Homo sapiens, UniProt P15056); test: B-Raf kinase activity, IMAP coupled assay (B-Raf/MEK1/ERK2, fluorescence polarization); assay type: biochemical; conditions: bounds also given as pIC50 (>6, >7, >8); 60 min pre-incubation with compound, ATP 50 μM; read-out: IC50, B-Raf IMAP assay
T1 construct: GST; purchased Upstate/Millipore
Excerpt: (§1) In another assay the B-Raf kinase activity can be determined by using an IMAP assay (Immobilized Metal Assay for Phosphochemicals-based coupled assay). IMAP is a homogeneous fluorescence polarization (FP) assay based on affinity capture of phosphorylated peptide substrates. IMAP uses fluorescein-labeled peptide substrates that, upon phosphorylation by a protein kinase, bind to so called IMAP nanoparticles, which are derivatized with trivalent metal complexes. Such binding causes a change in the rate of the molecular motion of the peptide, and results in an increase in the FP value observed for the fluorescein label attached to the substrate peptide. In such an assay, B-Raf phosphorylates unactive MEK1. The phosphorylated MEK1 is capable of phosphorylating ERK2, which subsequently phosphorylates the fluorescein-labeled peptide substrate.
Determination of B-Raf Kinase Activity using an IMAP Assay
as §1, with “Inhibition of” for “In another assay the”, “was measured” for “can be determined by”, “Immobilized” for “IMAP assay (Immobilized”, “assay (IMAP).” for “assay).”, “this” for “such an”
Enzymes, substrate and ATP were diluted at all steps in Kinase Reaction buffer (10 mM Tris-HCl, 10 mM MgCl2, 0.01% Tween-20, 0.05% NaN3 pH 7.2, 1 mM DTT). The final volume at the kinase reaction step of the assay in the 384-well plate was 20 μl. The concentrations within brackets are final concentrations in the assay. B-Raf (GST-tagged human recombinant active B-Raf (Δ1-415), Upstate/Millipore; 0.2 U/ml) was pre-incubated with compounds or DMSO (1% final concentration) for 60 minutes at room temperature in the dark. Thereafter, MEK 1 (GST-tagged human recombinant unactive MEK1 (full-length); 64 ng/ml), ERK2 (GST-tagged human recombinant unactive ERK2 (full-length); 600 ng/ml), peptide substrate (Erktide, Molecular Devices; 50 nM) and ATP (50 μM) were added to the wells and the mix was incubated for another 60 minutes at 30° C. in the dark. Then, IMAP progressive binding buffer (75% 1× buffer A, 25% 1× buffer B, 1:900 Progressive Binding Reagent; Molecular Devices) was added followed by an incubation step of 60 minutes at room temperature in the dark. Finally, the FP signal was read on an Envision Multilabel reader (Perkin Elmer).

[2] = test system: phosphorylation of ERK1/2 in A375 cells containing mutant B-Raf (V600E); test: Phospho-ERK FACE assay in A375 (B-Raf mutated) melanoma cell line; assay type: cell-based; conditions: Homo sapiens, A-375, A375 cells, 2 hours incubation, read-out: IC50, A375 melanoma phospho-ERK assay
Description: The B-Raf activity can also be determined in a B-Raf mutated melanoma cell line, such as the A375 cell line. Inhibition of phosphorylation of ERK1/2 can be measured using a Fast Activated Cell-based ELISA (FACE) from Active Motif (Carlsbad, U.S.A., CA). E.g. A375 cells, which are cells containing a mutant form of B-Raf (V600E) and thus contain high levels of phosphorylated ERK, can be incubated with Raf inhibitors. Then cells can be incubated with anti-phospho-ERK antibody and subsequently with horse radish peroxidase (HRP)-labeled secondary antibody. Finally, chemiluminescence reagents can be added, which react with HRP, to give a luminescence signal.
Determination of B-Raf Activity Using a A375 (B-Raf mutated) Melanoma Cell Line (Phospho-ERK FACE Assay)
Inhibition of phosphorylation of ERK1/2 was measured using a Fast Activated Cell-based ELISA (FACE) from Active Motif (Carlsbad, U.S.A., CA). Briefly, A375 cells, which are cells containing a mutant form of B-Raf (V600E) and thus contain high levels of phosphorylated ERK, were incubated for 2 hours with Raf inhibitors. Then, cells were fixed with paraformaldehyde, washed and following quenching and blocking, incubated with anti-phospho-ERK antibody, and as a control, on a separate plate, with ERK antibody. After washing and removal of the primary antibodies, the fixed cells were incubated with horse radish peroxidase (HRP)-labeled secondary antibody. Finally, chemiluminescence reagents were added, which react with HRP, to give a luminescence signal.
Detailed protocol: A375 cells were cultured in DMEM/F12 (Dulbecco's Modified Eagle Medium Nutrient Mixture F-12) (Invitrogen), supplemented with 10% fetal bovine serum (FBS) (Biowhittaker), 100 U/ml penicillin G and 100 μg/ml streptomycin (Gibco). For the phospho ERK assay, cells were seeded at a density of 15,000 cells/well in 100 μl culture medium in 96-well plates and incubated in a humidified atmosphere at 5% CO2 and 37° C. After 24 hours, cells were washed with DMEM/F12 supplemented with 0.1% FBS (assay medium 120 μl of assay medium was added and the plates were incubated overnight in a humidified atmosphere at 5% CO2 and 37° C. The next day, the assay medium was removed and compounds diluted in assay medium were added to the cells. Final DMSO concentration in the assay was 1%. After 2 hours incubation, cells were fixed by replacing the assay medium with 100 μl of 4% formaldehyde (Bio-Connect, Huissen, The Netherlands) in PBS. After 20 minutes of incubation at room temperature, cells were washed three times with 200 μl wash buffer (0.1% (vol/vol) Triton X-100 in PBS from the FACE kit) followed by an incubation of 20 minutes with 100 μl quenching buffer, containing 1% (vol/vol) hydrogen peroxide (Thermo Fisher Scientific) and 0.1% (vol/vol) sodium azide (Sigma-Aldrich) in phosphate-buffered saline. Cells were washed two times with wash buffer, incubated for 1 hour with 100 μl antibody blocking buffer from the kit and washed two times again. 40 μl of diluted antibody against phosphorylated ERK1/2 (1:500 from the FACE kit) was added and incubated overnight at 4° C. The phospho-ERK antibody has been raised against a synthetic phospho-peptide corresponding to residues Thr202 and Tyr204 of human ERK1 and Thr185 and Tyr187 of human ERK2. For the detection of total ERK, antibody against ERK1 and ERK2 (1:500 from the FACE kit) was added. The excessive primary antibody was washed out, and 100 μl diluted HRP-conjugated anti-rabbit IgG (1:2000 from the FACE kit) was added and incubated for 1 hour at room temperature. Secondary antibody was removed and cells were washed 3 times with wash buffer and twice with PBS. 50 μl per well of FACE chemiluminescent working solution was added. Chemiluminescence was measured on an Envision Multilabel reader.

[3] = class given as below 100 nM (pIC50>7)
[4] = between 1 μM and 100 nM (6<pIC50<7)

T1 sequence (P15056 416-766, stated change not applied): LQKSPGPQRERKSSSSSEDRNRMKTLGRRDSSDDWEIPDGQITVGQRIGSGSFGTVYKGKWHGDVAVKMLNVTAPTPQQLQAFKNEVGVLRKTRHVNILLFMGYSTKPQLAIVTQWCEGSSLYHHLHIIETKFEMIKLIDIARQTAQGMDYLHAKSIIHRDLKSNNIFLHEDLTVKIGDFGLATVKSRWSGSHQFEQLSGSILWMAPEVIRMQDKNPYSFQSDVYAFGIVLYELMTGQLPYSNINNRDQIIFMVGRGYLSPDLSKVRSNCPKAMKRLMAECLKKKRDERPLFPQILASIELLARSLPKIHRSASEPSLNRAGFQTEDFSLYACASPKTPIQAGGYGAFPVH

Structure (SMILES) | pIC50 [1] | pIC50 [2, 3] | pIC50 [2, 4] | pIC50 ([2]; class between 10 μM and 1 μM (5<pIC50<6))
Cc1ccc(NC(=O)c2cccc(C(C)(C)C#N)c2)cc1NC(=O)c1sc2nccnc2c1N [Example 1, 7-amino-N-(5-(3-(2-cyanopropan-2-yl)benzamido)-2-methylphenyl)thieno[2,3-b]pyrazine-6-carboxamide] | > 8.00 | > 7.00 | – | –
CNc1c(C(=O)Nc2cc(NC(=O)c3cccc(C(C)(C)C#N)c3)ccc2C)sc2nccnc12 [Example 2, N-(5-(3-(2-cyanopropan-2-yl)benzamido)-2-methylphenyl)-7-(methylamino)thieno[2,3-b]pyrazine-6-carboxamide] | > 8.00 | > 7.00 | – | –
Cc1ccc(NC(=O)c2cccc(C(C)(C)C#N)c2)cc1NC(=O)c1sc2ncc(Br)nc2c1N [Example 3, 7-amino-2-bromo-N-(5-(3-(2-cyanopropan-2-yl)benzamido)-2-methylphenyl)thieno[2,3-b]pyrazine-6-carboxamide] | > 7.00 | – | 6.00 to 7.00 | –
Cc1ccc(NC(=O)c2cccc(C(C)(C)C#N)c2)cc1NC(=O)c1sc2ncc(N(C)C)nc2c1N [Example 4, 7-amino-N-(5-(3-(2-cyanopropan-2-yl)benzamido)-2-methylphenyl)-2-(dimethylamino)thieno[2,3-b]pyrazine-6-carboxamide] | > 8.00 | > 7.00 | – | –
Cc1ccc(NC(=O)c2cccc(C(C)(C)C#N)c2)cc1NC(=O)c1sc2ncc(NCCN(C)C)nc2c1N [Example 5, 7-amino-N-(5-(3-(2-cyanopropan-2-yl)benzamido)-2-methylphenyl)-2-(2-(dimethylamino)ethylamino)thieno[2,3-b]pyrazine-6-carboxamide] | > 8.00 | – | 6.00 to 7.00 | –
CNc1cnc2sc(C(=O)Nc3cc(NC(=O)c4cccc(C(C)(C)C#N)c4)ccc3C)c(N)c2n1 [Example 6, 7-amino-N-(5-(3-(2-cyanopropan-2-yl)benzamido)-2-methylphenyl)-2-(methylamino)thieno[2,3-b]pyrazine-6-carboxamide] | > 8.00 | > 7.00 | – | –
CCNc1cnc2sc(C(=O)Nc3cc(NC(=O)c4cccc(C(C)(C)C#N)c4)ccc3C)c(N)c2n1 [Example 7, 7-amino-N-(5-(3-(2-cyanopropan-2-yl)benzamido)-2-methylphenyl)-2-(ethylamino)thieno[2,3-b]pyrazine-6-carboxamide] | > 7.00 | > 7.00 | – | –
Cc1ccc(NC(=O)c2cccc(C(C)(C)C#N)c2)cc1NC(=O)c1sc2ncc(N3CCN(C)CC3)nc2c1N [Example 8, 7-amino-N-(5-(3-(2-cyanopropan-2-yl)benzamido)-2-methylphenyl)-2-(4-methylpiperazin-1-yl)thieno[2,3-b]pyrazine-6-carboxamide] | > 8.00 | – | 6.00 to 7.00 | –
Cc1ccc(NC(=O)c2cccc(C(C)(C)C#N)c2)cc1NC(=O)c1sc2ncc(N3CCOCC3)nc2c1N [Example 9, 7-amino-N-(5-(3-(2-cyanopropan-2-yl)benzamido)-2-methylphenyl)-2-morpholinothieno[2,3-b]pyrazine-6-carboxamide] | > 8.00 | > 7.00 | – | –
COCCNc1cnc2sc(C(=O)Nc3cc(NC(=O)c4cccc(C(C)(C)C#N)c4)ccc3C)c(N)c2n1 [Example 10, 7-amino-N-(5-(3-(2-cyanopropan-2-yl)benzamido)-2-methylphenyl)-2-(2-methoxyethylamino)thieno[2,3-b]pyrazine-6-carboxamide] | > 8.00 | > 7.00 | – | –
Cc1ccc(NC(=O)c2cccc(C(C)(C)C#N)c2)cc1NC(=O)c1sc2ncc(NC3CCOCC3)nc2c1N [Example 11, 7-amino-N-(5-(3-(2-cyanopropan-2-yl)benzamido)-2-methylphenyl)-2-(tetrahydro-2H-pyran-4-ylamino)thieno[2,3-b]pyrazine-6-carboxamide] | > 7.00 | > 7.00 | – | –
CCNc1cnc2sc(C(=O)Nc3cc(NC(=O)c4cccc(C(C)(C)C#N)c4)ccc3C)cc2n1 [Example 13, N-(5-(3-(2-cyanopropan-2-yl)benzamido)-2-methylphenyl)-2-(ethylamino)thieno[2,3-b]pyrazine-6-carboxamide] | > 7.00 | > 7.00 | – | –
Cc1ccc(NC(=O)c2cccc(C(C)(C)C#N)c2)cc1NC(=O)c1cc2nc(NCCN(C)C)cnc2s1 [Example 14, N-(5-(3-(2-cyanopropan-2-yl)benzamido)-2-methylphenyl)-2-(2-(dimethylamino)ethylamino)thieno[2,3-b]pyrazine-6-carboxamide] | > 7.00 | – | – | 5.00 to 6.00
CNc1cnc2cc(C(=O)Nc3cc(NC(=O)c4cccc(C(C)(C)C#N)c4)ccc3C)sc2n1 [Example 59, N-(5-(3-(2-cyanopropan-2-yl)benzamido)-2-methylphenyl)-3-(methylamino)thieno[2,3-b]pyrazine-6-carboxamide] | – | – | 6.00 to 7.00 | –
Cc1ccc(C(=O)Nc2cccc(C(F)(F)F)c2)cc1NC(=O)c1sc2nccnc2c1N [Example 74, 7-amino-N-(2-methyl-5-(3-(trifluoromethyl)phenylcarbamoyl)phenyl)thieno[2,3-b]pyrazine-6-carboxamide] | > 7.00 | – | – | –
CCOc1cnc2sc(C(=O)Nc3cc(NC(=O)c4cccc(C(C)(C)C#N)c4)ccc3C)cc2n1 [Example 76, N-(5-(3-(2-cyanopropan-2-yl)benzamido)-2-methylphenyl)-2-ethoxythieno[2,3-b]pyrazine-6-carboxamide] | > 7.00 | – | – | –

From patent US8669256B2, “Substituted thieno[2,3-b]pyrazine compounds as modulators of B-Raf kinase activity” (Merck Sharp & Dohme B.V., priority 2010, dated 2014)
